# According to PubChem BioAssay AID1552 (Sanford-Burnham Center for Chemical Genomics, 2009):
# The source made the active and inactive calls. How the calls were made is not given here.
# Target: Ubiquitin-conjugating enzyme E2 N (Homo sapiens) (UniProt P61088)
# Assay: NMR detection of UBE2N ligand binding – biophysical, purified protein (AID 1552)
# Conditions: NMR binding to purified UBE2N
# Chain of Ubiquitin-conjugating enzyme E2 N (Homo sapiens) (P61088 whole entry, looked up): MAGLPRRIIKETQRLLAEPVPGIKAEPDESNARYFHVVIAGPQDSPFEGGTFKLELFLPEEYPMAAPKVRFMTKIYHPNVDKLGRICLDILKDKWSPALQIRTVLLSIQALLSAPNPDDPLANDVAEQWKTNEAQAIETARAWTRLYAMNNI
row,SMILES,Kd
1,CC1=NN2C(=N)CC(=O)N=C2S1,> 4 mM (inactive)
2,COc1ccc2cc1Oc1ccc(cc1)C[C@H]1c3c(cc4c(c3Oc3cc5c(cc3OC)CCN(C)[C@@H]5C2)OCO4)CCN1C,> 4 mM (inactive)
3,O=[N+]([O-])c1cccc(-c2c[n+](=O)c3c(n2[O-])CCC3)c1,> 4 mM (inactive)
4,OC[C@H]1O[C@@H](O[C@H]2[C@H](O)[C@@H](O)[C@@H](O)O[C@@H]2CO)[C@H](O)[C@@H](O)[C@@H]1O,> 4 mM (inactive)
5,NC(=O)CCn1cnc2ccccc21,> 4 mM (inactive)
6,CC(=O)Oc1c(C)cc(O)c2ccccc12,> 4 mM (inactive)
7,O=C(Nc1ccccc1)N1CCOCC1,> 4 mM (inactive)
8,CC1CC2(NC(=O)NC2=O)C(C)CN1C (configuration not stated),> 4 mM (inactive)
9,CNC(=S)Nc1cccc(C(=O)O)c1,> 4 mM (inactive)
10,CC(=O)O[C@@H]1CC2C(C)(CC[C@H](O)C2(C)C)C2CC[C@]3(C)C(=CC(=O)O[C@H]3c3ccoc3)C21C (some centres not stated),> 4 mM (inactive)
11,CC(=O)Nc1cc(N2C(=O)C=CC2=O)ccc1Cl,> 4 mM (inactive)
12,NCCc1c[nH]c2ccccc12,> 4 mM (inactive)
13,CNC(=O)C1CC(=O)N(c2ccc(O)cc2)C1 (configuration not stated),> 4 mM (inactive)
14,CC1(C)Cc2cccc(CO)c2O1,> 4 mM (inactive)
15,CCC(=O)Nc1cccc(NC(C)=O)c1,> 4 mM (inactive)
16,O=C(c1ccco1)N1CCn2c1nc1ccccc12,> 4 mM (inactive)
17,OCC1COc2ccccc2O1 (configuration not stated),> 4 mM (inactive)
18,CCC1(CC)C(=O)NC(=O)N=C1N,> 4 mM (inactive)
19,CC(=O)Nc1nnc(-c2ccccc2S(C)(=O)=O)o1,> 4 mM (inactive)
20,CCc1cccc(C)c1NC(=O)c1cc(C)oc1C,> 4 mM (inactive)
21,O=C1CCC(=O)N1c1ccc(F)cc1,> 4 mM (inactive)

row,SMILES,Kd
1,Cc1noc(C)c1C(=O)N1CCc2ccccc21,> 4 mM (inactive)
2,Cc1ccccc1N1C(=O)CC(=O)NC1=O,> 4 mM (inactive)
3,C[C@@H]1CC[C@@]23CCC4(C)[C@@](C=CC5[C@@]6(C)CCC(=O)C(C)(C)C6CC[C@]54C)(OC2=O)C3[C@H]1C (some centres not stated),> 4 mM (inactive)
4,CC(C)(C)Cc1nc(-c2ccccn2)no1,> 4 mM (inactive)
5,Cc1n[nH]c(C)c1CN,> 4 mM (inactive)
6,CSc1ccc(C2NC(=O)CCC2[N+](=O)[O-])cc1 (configuration not stated),> 4 mM (inactive)
7,CC(=O)c1cccc(NS(=O)(=O)N(C)C)c1,> 4 mM (inactive)
8,O=c1c2c(nc3nc(Cc4ccccc4)[nH]n13)CCC2,> 4 mM (inactive)
9,Cc1cc(C)n2nc(C(=O)NCc3ccco3)nc2n1,> 4 mM (inactive)
10,NC(N)=Nc1nc2ccccc2o1,> 4 mM (inactive)
11,CN(C)N1C(=O)C2C3C=CC(O3)C2C1=O (configuration not stated),> 4 mM (inactive)
12,Cc1nc2ccc(C(=O)O)cc2[nH]1,> 4 mM (inactive)
13,CC1(C)CC(=O)c2sc(N)nc2C1,> 4 mM (inactive)
14,Nc1cc(-c2ccco2)[nH]n1,> 4 mM (inactive)
15,O=c1cnnc(Nc2ccc(O)cc2)[nH]1,> 4 mM (inactive)
16,C(=N\c1ncn[nH]1)/c1cccs1,> 4 mM (inactive)
17,OCc1cccc2c1OCCO2,> 4 mM (inactive)
18,O=C1CCCN1C(=O)CN1CCOCC1,> 4 mM (inactive)
19,CN1CCOc2cc(C(=O)O)ccc21,> 4 mM (inactive)
20,Nc1ccn(C2O[C@H](CO)[C@@H](O)[C@H]2O)c(=O)n1 (some centres not stated),> 4 mM (inactive)
21,COC(=O)CSc1nnc(-c2ccc(C(=O)O)cc2)o1,> 4 mM (inactive)

row,SMILES,Kd
1,CN1C(=O)C2C=CC1C1C(=O)N(c3ccccc3)C(=O)C21 (configuration not stated),> 4 mM (inactive)
2,Oc1cc(O)c2c(c1)O[C@H](c1ccc(O)c(O)c1)[C@@H](O)C2,> 4 mM (inactive)
3,Cc1nc2ccccc2c(=O)n1/N=C/c1ccncc1,> 4 mM (inactive)
4,CCc1nnc(NC(C)=O)s1,> 4 mM (inactive)
5,OCC1CCCC1O (configuration not stated),> 4 mM (inactive)
6,OCn1nnn(-c2ccccc2)c1=S,> 4 mM (inactive)
7,C[C@H](CCC(=O)O)[C@H]1CCC2C3C(CC[C@@]21C)[C@@]1(C)CC[C@@H](O)C[C@H]1C[C@@H]3O (some centres not stated),> 4 mM (inactive)
8,C[C@]12CCC3C(CC[C@]4(O)C[C@@H](O)CC[C@]34C=O)[C@@]1(O)CCC2C1=CC(=O)OC1 (some centres not stated),> 4 mM (inactive)
9,Cc1cccc(CSc2nncc(=O)[nH]2)c1,> 4 mM (inactive)
10,O=C(Nc1cccc2cccnc12)c1cccnc1,> 4 mM (inactive)
11,CN(C)CCNC(CC(=O)Nc1ccccc1)C(=O)O (configuration not stated),> 4 mM (inactive)
12,O=C1C2=C(SCCS2)C(=O)N1CCCO,> 4 mM (inactive)
13,C=C1CCC(=O)C(C)CCC2C1CC2(C)C (configuration not stated),> 4 mM (inactive)
14,Cc1ccccc1-n1c(-c2ccncc2)n[nH]c1=S,> 4 mM (inactive)
15,O=C1C(=O)N(CN2CCN(CCO)CC2)c2ccccc21,> 4 mM (inactive)
16,O=P(c1ccccc1)(c1ccccc1)C1CCOCC1,> 4 mM (inactive)
17,O=C(O)CSCC(=O)Nc1cccc(O)c1,> 4 mM (inactive)
18,CC(=O)O[C@@H]1CC2C(C)(C)[C@H](O)C=C[C@]2(C)C2CC[C@@]3(C)[C@H](c4ccoc4)OC(=O)C4OC43[C@@]21C (some centres not stated),> 4 mM (inactive)
19,O=C1CNc2cc(C(=O)O)ccc2N1,> 4 mM (inactive)
20,COc1cc2c(cc1OC)[C@@H]1C(=O)c3ccc4oc(C(C)C)cc4c3O[C@@H]1CO2,> 4 mM (inactive)
